From PMC6267684, “Pharmacokinetic evaluation of the PNC disassembler metarrestin in wild-type and Pdx1-Cre;LSL-Kras^G12D/+;Tp53^R172H/+ (KPC) mice, a genetically engineered model of pancreatic cancer” (Cancer Chemotherapy and Pharmacology, 2018) come the findings set out here.

Molecules are shown by their SMILES.

As a reminder, the IC50 is the concentration that gives 50% inhibition.

Data set [1] is described as follows: Steady-state PK in KPC mice fed metarrestin-infused chow. It counts as in vivo. As to conditions: 25 mg/kg PO chow MD. On the procedure: Metarrestin [ML-246; Trans-4-(7-benzyl-4-imino-5,6-diphenyl-4,7-dihydro-3H-pyrrolo[2,3-d]pyrimidin-3-yl) cyclohexanol] was manufactured in-house using the previously described 4-step synthesis sequence. Purity (> 98%) was determined by LC-MS/MS and 1H-NMR analysis as previously reported. To enhance bioavailability, the drug was micronized to particles of uniform small size with greater surface area using a technique proprietary to Crititech Inc. (Lawrence, Kansas). In brief, the drug substance was dissolved in organic solvent dichloromethane and precipitated using compressed super critical carbon dioxide as the anti-solvent. The produced material had 90% particles with a diameter less than 1.131 µm with a mean diameter of 0.829 µm (Suppl. Figure 1). […]
An ultra-performance liquid chromatography–tandem mass spectrometry (UPLC–MS/MS) method was developed to determine metarrestin concentrations in plasma and tissue samples. […] Data were analyzed using MassLynx V4.1.
The pharmacokinetic parameters were calculated using the non-compartmental approach (Models 200 and 201) of the pharmacokinetic software Phoenix WinNonlin, version 6.4 (Certara, St. Louis, MO). The area under the plasma concentration vs time curve (AUC) was calculated using the linear trapezoidal method. […]

The test system of data set [2] is PNC in PC3M cells. Nature of the data set: PNC disassembly assay in PC3M cells. It is filed as cell-based. As to conditions: PC3M (PTB-GFP) cells. On the procedure: The PNC disassembly assay has been previously described. […] Cells were fixed with […] for 10 min at room temperature. […] Confocal images were obtained using Opera Phoenix (PerkinElmer, Waltham, MA) and a 20× objective lens.
To examine whether measured intratumor metarrestin concentrations measured in PK studies track with intracellular metarrestin concentration, we first decided to synthesize a fluorophore conjugated analog of metarrestin. Structure activity relationship studies around the structure of metarrestin were conducted in a high throughput assay that measured in dose dependence the ability of compounds to reducing PNC prevalence in PC3M cells. […] This analog was chemically conjugated to the fluorophore boron-dipyrromethene (BODIPY®) to track the disassembly of the PNC in PC3M cancer cells by confocal microscopy (Suppl. Figure 2). […] Next, to examine cellular metarrestin levels in relation to extracellular concentrations, we exposed KPC and PC3M cells at 1 and 10 µM concentrations of metarrestin and harvested cells at different timepoints.

As to `N=c1c2c(-c3ccccc3)c(-c3ccccc3)n(Cc3ccccc3)c2ncn1[C@H]1CC[C@H](O)CC1` [metarrestin, Trans-4-(7-benzyl-4-imino-5,6-diphenyl-4,7-dihydro-3H-pyrrolo[2,3-d]pyrimidin-3-yl) cyclohexanol], in data set [1], the “intratumor AUC0–24h” value is 396,000 h ng/mL. In addition, the IC50 worked out at 400 nM in data set [2] (Homo sapiens, PC-3M) and 397 nM in data set [2].
